Series [1] relates to Rattus norvegicus. Put plainly: Antiamnesic activity in Charles Foster albino rat assessed as reduction in scopolamine-induced increase in transfer latency at 10 mg/kg, po administered for 8 days measured 1 hr post last dose by elevated plus maze task (reference value: 62.50 +/- 0.76 s). Type of series: functional.
Series [2] relates to Rattus norvegicus. The series is described as follows: Acute toxicity in Charles Foster albino rat assessed as diarrhoea up to 100 mg/kg, po after 48 hrs. The following applies: in vivo. Further details: dose 100 mg/kg, route oral. In kind it is organism-based.
The test system of series [3] is Rattus norvegicus. The series is described as follows: Acute toxicity in Charles Foster albino rat assessed as blood pressure up to 100 mg/kg, po after 48 hrs. In kind it is organism-based. The arrangement: dose 100 mg/kg, route oral. The conditions noted are these: in vivo.
The subject of series [4] is Rattus norvegicus. Put plainly: Acute toxicity in Charles Foster albino rat assessed as tremors up to 100 mg/kg, po after 48 hrs. The arrangement: dose 100 mg/kg, route oral. In kind it is organism-based. The following applies: in vivo.
Series [5] relates to Rattus norvegicus. Put plainly: Acute toxicity in Charles Foster albino rat assessed as feeding behaviour up to 100 mg/kg, po after 48 hrs. In kind it is organism-based. Further details: dose 100 mg/kg, route oral. The following applies: in vivo.
Series [6] deals with Rattus norvegicus. Put plainly: Acute toxicity in Charles Foster albino rat assessed as pulse rate up to 100 mg/kg, po after 48 hrs. The following applies: in vivo. The arrangement: dose 100 mg/kg, route oral. In kind it is organism-based.
Series [7] relates to Rattus norvegicus. The series is described as follows: In vivo inhibition of AChE-mediated substrate hydrolysis in Charles Foster albino rat hippocampus at 5 to 10 mg/kg, po administered for 8 days measured 1 hr post last dose. Type of series: functional, organism-based. The arrangement: dose 5 to 10 mg/kg, route oral.
Series [8] can be described thus: Selectivity ratio of IC50 for human serum BChE to IC50 for electric eel AChE.
For series [9], the system named is Rattus norvegicus. The series is described as follows: Acute toxicity in Charles Foster albino rat assessed as heart rate up to 100 mg/kg, po after 48 hrs. In kind it is organism-based. The arrangement: dose 100 mg/kg, route oral. The following applies: in vivo.
Series [10] deals with Rattus norvegicus. The series is described as follows: Antiamnesic activity in Charles Foster albino rat assessed as reduction in scopolamine-induced increase in transfer latency at 10 mg/kg, po administered for 7 days measured 1 hr post last dose by elevated plus maze task (reference value: 67.67 +/- 0.88 s). Type of series: functional.
Series [11] deals with T1, Cholinesterase (Homo sapiens, UniProt P06276). Put plainly: Inhibition of human serum BChE using butyrylthiolcholine iodide as substrate incubated for 20 mins prior to substrate addition by Ellman's method.
Series [12] has as its system Rattus norvegicus. The series is described as follows: Antiamnesic activity in Charles Foster albino rat assessed as reduction in scopolamine-induced increase in transfer latency at 5 mg/kg, po administered for 8 days measured 1 hr post last dose by elevated plus maze task (reference value: 62.50 +/- 0.76 s). Type of series: functional.
Series [13] concerns Rattus norvegicus. The series is described as follows: In vivo inhibition of AChE-mediated substrate hydrolysis in Charles Foster albino rat hypothalamus at 5 to 10 mg/kg, po administered for 8 days measured 1 hr post last dose. Type of series: functional, organism-based. Further details: dose 5 to 10 mg/kg, route oral.
For series [14], the system named is Rattus norvegicus. Put plainly: Acute toxicity in Charles Foster albino rat assessed as salivation up to 100 mg/kg, po after 48 hrs. Type of series: organism-based. The arrangement: dose 100 mg/kg, route oral. The conditions noted are these: in vivo.
Series [15] relates to Rattus norvegicus. The series is described as follows: Acute toxicity in Charles Foster albino rat assessed as convulsions up to 100 mg/kg, po after 48 hrs. In kind it is organism-based. Further details: dose 100 mg/kg, route oral. The following applies: in vivo.
Series [16] concerns the target T2, Acetylcholinesterase (Electrophorus electricus, UniProt O42275). The series is described as follows: Inhibition of electric eel AChE using […] as substrate incubated for 20 mins prior to substrate addition by Ellman method.
Series [17] relates to Rattus norvegicus. Put plainly: Acute toxicity in Charles Foster albino rat assessed as lacrimation up to 100 mg/kg, po after 48 hrs. In kind it is organism-based. Further details: dose 100 mg/kg, route oral. The following applies: in vivo.
Series [18] relates to Rattus norvegicus. Put plainly: Acute toxicity in Charles Foster albino rat assessed as mortality up to 100 mg/kg, po after 48 hrs. Type of series: organism-based. The following applies: in vivo. Further details: dose 100 mg/kg, route oral.
The subject of series [19] is Rattus norvegicus. Put plainly: Acute toxicity in Charles Foster albino rat assessed as sleep up to 100 mg/kg, po after 48 hrs. The conditions noted are these: in vivo. In kind it is organism-based. The arrangement: dose 100 mg/kg, route oral.
The subject of series [20] is Rattus norvegicus. Put plainly: Antiamnesic activity in po dosed Charles Foster albino rat assessed as reduction in scopolamine-induced increase in transfer latency after 7 to 8 days by elevated plus maze task. Type of series: functional, organism-based.
The test system of series [21] is Rattus norvegicus. The series is described as follows: In vivo inhibition of AChE-mediated substrate hydrolysis in Charles Foster albino rat prefrontal cortex at 5 to 10 mg/kg, po administered for 8 days measured 1 hr post last dose. In kind it is functional, organism-based.
Series [22] has as its system Rattus norvegicus. The series is described as follows: Antiamnesic activity in Charles Foster albino rat assessed as reduction in scopolamine-induced increase in transfer latency at 5 mg/kg, po administered for 7 days measured 1 hr post last dose by elevated plus maze task (reference value: 67.67 +/- 0.88 s). Type of series: functional.
For series [23], the target named is T1, Cholinesterase. Put plainly: Competitive inhibition of human serum BChE using butyrylthiolcholine iodide as substrate by Lineweaver-Burk plot analysis.
Series [24] has as its target T2, Acetylcholinesterase. Put plainly: Non-competitive inhibition of electric eel AChE using […] as substrate by Lineweaver-Burk plot analysis.

Active and inactive are the calls of the source. The calls are words filed in the database; no cut-off is given here.

T1 sequence (P06276 whole entry): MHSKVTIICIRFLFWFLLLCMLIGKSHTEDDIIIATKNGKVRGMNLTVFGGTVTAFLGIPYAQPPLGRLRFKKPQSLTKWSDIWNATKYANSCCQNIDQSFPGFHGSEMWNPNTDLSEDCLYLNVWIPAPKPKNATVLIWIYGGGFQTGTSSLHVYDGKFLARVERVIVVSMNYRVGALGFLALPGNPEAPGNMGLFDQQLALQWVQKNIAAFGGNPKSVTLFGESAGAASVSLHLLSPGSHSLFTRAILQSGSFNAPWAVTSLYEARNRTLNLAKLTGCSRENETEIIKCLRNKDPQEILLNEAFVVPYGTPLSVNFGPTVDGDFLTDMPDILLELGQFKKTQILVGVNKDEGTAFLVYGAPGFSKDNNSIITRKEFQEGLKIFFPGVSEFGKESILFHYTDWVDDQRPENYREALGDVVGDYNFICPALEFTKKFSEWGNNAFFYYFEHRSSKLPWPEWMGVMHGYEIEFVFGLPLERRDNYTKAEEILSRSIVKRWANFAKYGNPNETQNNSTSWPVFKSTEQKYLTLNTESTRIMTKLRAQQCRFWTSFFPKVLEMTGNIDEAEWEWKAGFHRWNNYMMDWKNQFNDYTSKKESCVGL
T2 sequence (O42275 whole entry): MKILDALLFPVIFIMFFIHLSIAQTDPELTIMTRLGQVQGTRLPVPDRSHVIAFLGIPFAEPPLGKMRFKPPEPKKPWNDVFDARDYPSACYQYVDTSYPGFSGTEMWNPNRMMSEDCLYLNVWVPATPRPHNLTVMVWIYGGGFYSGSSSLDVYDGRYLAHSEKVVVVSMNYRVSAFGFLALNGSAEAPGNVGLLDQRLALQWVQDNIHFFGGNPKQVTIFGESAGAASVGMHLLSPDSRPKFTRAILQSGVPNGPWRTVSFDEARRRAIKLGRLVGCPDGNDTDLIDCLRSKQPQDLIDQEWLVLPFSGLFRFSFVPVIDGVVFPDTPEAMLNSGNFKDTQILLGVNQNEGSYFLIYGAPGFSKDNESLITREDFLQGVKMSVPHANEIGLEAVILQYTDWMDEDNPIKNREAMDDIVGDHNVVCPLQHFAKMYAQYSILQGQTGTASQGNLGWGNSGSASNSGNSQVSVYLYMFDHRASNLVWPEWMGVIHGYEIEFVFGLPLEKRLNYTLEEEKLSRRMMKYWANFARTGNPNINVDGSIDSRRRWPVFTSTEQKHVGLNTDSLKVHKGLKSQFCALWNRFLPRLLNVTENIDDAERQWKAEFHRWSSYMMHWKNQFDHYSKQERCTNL

For the compound `O=C1CCC(=O)N1c1ccncc1`, the Time in the series with Rattus norvegicus [1] is recorded as 58.33 s; in the series on Rattus norvegicus [10] it was 65.5 s; in the series with Rattus norvegicus [12] it was 60.67 s; in the series with Rattus norvegicus [22] it was 66.83 s. Moreover, the Activity result in the series with Rattus norvegicus [2], in the series with Rattus norvegicus [3], in the series on Rattus norvegicus [4], with Rattus norvegicus [5], in the series on Rattus norvegicus [6] and with Rattus norvegicus [9] was “Non-toxic” in each case. The Activity entry with Rattus norvegicus [14] is “Non-toxic”; with Rattus norvegicus [15] it was “Non-toxic”; in the series on Rattus norvegicus [17], “Non-toxic”; in the series with Rattus norvegicus [18], “Non-toxic”; in the series on Rattus norvegicus [19], “Non-toxic”; in the series on Rattus norvegicus [20], “Dose-dependent effect”. In addition, the inhibition entry with Rattus norvegicus [7], in the series with Rattus norvegicus [13] and in the series with Rattus norvegicus [21] was “Active” in each case. Moreover, the Ratio IC50 in series [8] amounted to 7.79. Besides, the values for the IC50 against Cholinesterase [11] and against Acetylcholinesterase [16] were 3.82 µM and 0.49 µM, respectively.
As for `O=C1C=CC(=O)N1c1ccncc1`, the Ki is 15.6 µM at Cholinesterase [23] and 42 nM on Acetylcholinesterase [24]. Moreover, the Time in the series on Rattus norvegicus [1] was 53.83 s; in the series with Rattus norvegicus [10] it was 61.33 s; in the series on Rattus norvegicus [12], 56.33 s; in the series on Rattus norvegicus [22], 64.67 s. Also, the Activity result in the series on Rattus norvegicus [2], in the series with Rattus norvegicus [3], with Rattus norvegicus [4], in the series on Rattus norvegicus [5], with Rattus norvegicus [6] and in the series with Rattus norvegicus [9] was “Non-toxic” throughout. Moreover, the Activity result in the series with Rattus norvegicus [14] is “Non-toxic”; in the series on Rattus norvegicus [15] it was “Non-toxic”; in the series with Rattus norvegicus [17], “Non-toxic”; with Rattus norvegicus [18], “Non-toxic”; with Rattus norvegicus [19], “Non-toxic”; in the series on Rattus norvegicus [20], “Dose-dependent effect”. Besides, the inhibition result with Rattus norvegicus [7], with Rattus norvegicus [13] and with Rattus norvegicus [21] was “Active” in each case. For the same compound, the Ratio IC50 in series [8] came to 367. The IC50 on Cholinesterase [11] turned out to be 11 µM; on Acetylcholinesterase [16], 0.03 µM.
Consider `O=C(O)/C=C\C(=O)Nc1ccncc1`, for which the Time in the series with Rattus norvegicus [1] stood at 72.5 s; in the series on Rattus norvegicus [10] it was 77.67 s; with Rattus norvegicus [12], 75.33 s; in the series on Rattus norvegicus [22], 80.5 s. In addition, the Activity entry with Rattus norvegicus [2], in the series with Rattus norvegicus [3], in the series with Rattus norvegicus [4], with Rattus norvegicus [5], in the series with Rattus norvegicus [6] and with Rattus norvegicus [9] was “Non-toxic” in each case. For the same compound, the Activity result is “Non-toxic” in the series on Rattus norvegicus [14]; “Non-toxic” with Rattus norvegicus [15]; “Non-toxic” in the series on Rattus norvegicus [17]; “Non-toxic” with Rattus norvegicus [18]; “Non-toxic” in the series with Rattus norvegicus [19]; “Dose-dependent effect” with Rattus norvegicus [20]. The inhibition entry in the series with Rattus norvegicus [7], with Rattus norvegicus [13] and in the series on Rattus norvegicus [21] was “Active” each time. Moreover, the Ratio IC50 in series [8] is 13.5. Also, the IC50 against Cholinesterase [11] came to 657 µM; on Acetylcholinesterase [16], 48.7 µM.
With `O=C(O)CCC(=O)Nc1ccncc1`, the Time with Rattus norvegicus [1] is on record as 70 s; in the series on Rattus norvegicus [10] it was 74.83 s; in the series with Rattus norvegicus [12], 71.67 s; in the series on Rattus norvegicus [22], 77.67 s. Further, the Activity result in the series on Rattus norvegicus [2], in the series with Rattus norvegicus [3], in the series with Rattus norvegicus [4], with Rattus norvegicus [5], with Rattus norvegicus [6] and with Rattus norvegicus [9] was “Non-toxic” each time. Also, the Activity result in the series with Rattus norvegicus [14] was “Non-toxic”; with Rattus norvegicus [15] it was “Non-toxic”; in the series on Rattus norvegicus [17], “Non-toxic”; in the series with Rattus norvegicus [18] it was “Non-toxic”; with Rattus norvegicus [19], “Non-toxic”; in the series with Rattus norvegicus [20], “Dose-dependent effect”. The inhibition entry in the series with Rattus norvegicus [7], in the series with Rattus norvegicus [13] and with Rattus norvegicus [21] was “Active” in each case. Besides, in series [8], the Ratio IC50 is 1.39. Moreover, the results for the IC50 at Cholinesterase [11] and against Acetylcholinesterase [16] were 56.5 µM and 40.3 µM, respectively.
